Source: US8067175B2, “Methods and compositions for detecting a drug resistant EGFR mutant” (priority 2005, dated 2011)

System: lung adenocarcinoma
Test: Case reports of patients treated with gefitinib or erlotinib

Structure (SMILES)	CT scan response of bilateral nodules (patient 2, 150 mg daily, 4 mo after treatment)	adverse effect leading to dose decrease (patient 2, after 14 mo of therapy, dose decreased to 100 mg daily)	disease outcome (patient 2, after 25 mo of treatment)	chest radiograph response (patient 1, 250 mg daily, 2 wk after start)	chest radiograph outcome (patient 1, nine mo later)	disease outcome on adjuvant treatment (patient 3, after three mo)
C#Cc1cccc(Nc2ncnc3cc(OCCOC)c(OCCOC)cc23)c1 [erlotinib]	markedly reduced in number and size	fatigue	the disease progressed within the lung			
COc1cc2ncnc(Nc3ccc(F)c(Cl)c3)c2cc1OCCCN1CCOCC1 [gefitinib]				dramatic improvement	progression of disease	developed a new left-sided malignant pleural effusion
